Source: patent EP2954896A1, “Small molecule inhibitors of the E3 Ligase Skp2 in depression and other diseases” (Max-Planck-Gesellschaft zur Förderung der Wissenschaften …, priority 2014, dated 2015)

Columns and labels:
autophagy markers = experiment: Autophagy markers in protein extracts of hippocampus and prefrontal cortex after acute antidepressant injection; type: in vivo, mice; conditions: 10 mgkg-1
Procedure: Western blot analysis was performed on eluates from ColPs or with protein extracts from cells or tissue. Protein extracts were obtained by lysing cells or tissue (prelysed as described in the paragraph before) in 62.5 mM Tris, 2% SDS and 10% sucrose, supplemented with protease (Sigma, P2714) and phosphatase (Roche, 04906837001) inhibitor cocktail. Samples were sonicated and heated at 95 °C for 5 min. Proteins were separated by SDS-PAGE and electro-transferred onto nitrocellulose membranes. Blots were placed in Tris-buffered saline, supplemented with 0.05% Tween (Sigma, P2287) and 5% non-fat milk for 1 h at room temperature and then incubated with primary antibody (diluted in TBS/0.05% Tween) overnight at 4 °C. The following primary antibodies were used: Beclin1 (1:1000, Cell Signaling, #3495), Atg12 (1:1000, Cell Signaling #2010), LC3B-I/II (1:1000, Cell Signaling, #2775), FLAG (1:7000, Rockland, 600-401-383), FKBP51 (1:1000, Bethyl, A301-430A), Akt (1:1000, Cell Signaling, #4691), pAkt (1:1000, Ser473, T308, 1:1000, Cell Signaling, #4058, #9275), Actin (1:5000, Santa Cruz Biotechnologies, sc-1616), Skp2, myc (Addgene, 19947), GFP (santa cruz biotechnologies, sc-8334), p27 (cell signaling technologies, 3686), pULK,(S757, cell signaling technologies, 6888) APP-CTF (sigma-aldrich, A8717), DNMT1 (1:1000, Imgenex, IMG-261A), phospho-DNMT1 (S154), (1:1000, Abnova, PAB4924), ptau (S622; Santa Cruz Biotechnologies, #sc-16938).
Subsequently, blots were washed and probed with the respective horseradish peroxidase- or fluorophore-conjugated secondary antibody for 1 h at room temperature. The immuno-reactive bands were visualized either using ECL detection reagent (Millipore, Billerica, MA, USA, WBKL0500) or directly by excitation of the respective fluorophore. Determination of the band intensities were performed with BioRad, ChemiDoc MP, or X-ray-films.
The Fkbp51^-/- mouse line was previously generated (Touma C et al. (2011) Biol. Psychiatry 70: 928-936) and fully backcrossed to C57/BI6. […] Hippocampus and prefrontal cortex were extracted.

Beclin1 mRNA = Beclin1 mRNA expression by qPCR in rat cortical astrocytes; type: cell-based; conditions: 10µM for 72h; vehicle set to 1
Procedure: Enriched astroglial cultures were prepared from postnatal day 1 rat pups (Sprague-Dawley, Charles River, Sulzfeld, Germany) and handled as described by Attwood BK et al. (2011) Nature 473: 372-375 and Hartmann J et al. (2012) Neuropharmacology 62: 332-339.
Total RNA was isolated from astroglial cells according to the manufacturer's protocol of NucleoSpin RNA II (Macherey-Nagel, Germany). In total, 300 ng of purified RNA was reverse transcribed using random primers (Promega) and Omniscript® Reverse Transcriptase (Qiagen). Based on the LightCycler® System (Roche Applied Science, Germany) and SYBR green detection (QuantiFast® SYBR Green; Qiagen), quantitative assessment of Beclin1 cDNA levels were performed. b-Actin PCR was performed serving as endogenous control for normalization. The primers used were: for Beclin1: antisense - 5'-[…]-3' sense - 5'-[…]-3'; and for β-Actin: antisense - 5'-[…]-3', sense-5'-[…]-3'. Relative changes of gene expression were calculated using the comparative ΔΔCT method (Livak and Schmittgen, METHODS 25, 402-408, 2001). Detection of viral RNA by real-time PCR was as recently described (Corman et al. (2014) Journal of Clinical Virology 60: 168-171).
Beclin1 mRNA expression levels were determined by qPCR. HEK cells were treated either with proteasome inhibitor MG132 or with vehicle for 5h and Beclin1 protein levels were determined by Western analysis. Furthermore Co-immunoprecipitations were performed with Beclin1 antibody in HEK cell lysates with ectopic Ub-GFP.

[1] = Forced swim test after acute antidepressant injection in Fkbp51+/+ and Fkbp51-/- mice; type: in vivo; conditions: acute injection 10 mgkg-1
Procedure: The Fkbp51^-/- mouse line was previously generated (Touma C et al. (2011) Biol. Psychiatry 70: 928-936) and fully backcrossed to C57/BI6. […] Hippocampus and prefrontal cortex were extracted. […] Male mice (age 10-16 weeks) were injected intraperitoneally with a single dose of either AMI (10 mg kg^-1) or saline vehicle. […] Another subgroup (WT n=5, KO n=5) was sacrificed, and brain tissue and blood was sampled for analysis of drug concentrations. […] The inventors performed an additional forced swim test administering the antidepressant amitriptyline in FKBP51 WT and FKBP51 KO mice (Fig. 1 B).

[2] = Fkbp51+/+ mice, hippocampus and prefrontal cortex

Fc1ccc([C@@H]2CCNC[C@H]2COc2ccc3c(c2)OCO3)cc1 [PAR, paroxetine]
level of Atg12 (autophagy markers; [2]): increased
level of Beclin1 (autophagy markers; [2]): increased
level of Vps34 (autophagy markers; [2]): increased
phosphorylation of the kinase Akt (pAktS473) (autophagy markers; [2]): evoked dephosphorylation
protein levels of autophagy markers and pAktS473 (autophagy markers; Fkbp51-/- mice, either brain region): no alterations
Beclin1 mRNA expression level (Beclin1 mRNA): do not change Beclin1-mRNA
time spent struggling, forced swim test ([1]; Fkbp51+/+ mice): increase in the time spent struggling
time floating (immobility), forced swim test ([1]; Fkbp51+/+ mice, versus vehicle): less time floating
effect on time floating (immobility), forced swim test ([1]; Fkbp51-/- mice): significantly less pronounced
effect on time spent struggling, forced swim test ([1]; Fkbp51-/- mice): significantly attenuated
